In patent US8501786B2, “Hydroxymethyl pyrrolidines as beta 3 adrenergic receptor agonists” (Merck Sharp & Dohme Corp., priority 2009, dated 2013):
Structures can show the parent of a compound that is named as a salt.

Each molecule was assayed against T1, human β3 adrenergic receptor (Homo sapiens, UniProt P13945) (assay: Functional assay: cAMP production (LANCE TR-FRET) in CHO cells stably transfected with cloned β3 adrenergic receptor). Settings: Table 2; cAMP production, CHO cells expressing human β3 AR; read-out: Human β3 functional.
T1 construct: stably transfected with the cloned β-adrenergic receptor (β1, β2 or β3); expressed in transfected cells; host or cells: Chinese hamster ovary (CHO) cells, stably transfected
T1 sequence (P13945 whole entry): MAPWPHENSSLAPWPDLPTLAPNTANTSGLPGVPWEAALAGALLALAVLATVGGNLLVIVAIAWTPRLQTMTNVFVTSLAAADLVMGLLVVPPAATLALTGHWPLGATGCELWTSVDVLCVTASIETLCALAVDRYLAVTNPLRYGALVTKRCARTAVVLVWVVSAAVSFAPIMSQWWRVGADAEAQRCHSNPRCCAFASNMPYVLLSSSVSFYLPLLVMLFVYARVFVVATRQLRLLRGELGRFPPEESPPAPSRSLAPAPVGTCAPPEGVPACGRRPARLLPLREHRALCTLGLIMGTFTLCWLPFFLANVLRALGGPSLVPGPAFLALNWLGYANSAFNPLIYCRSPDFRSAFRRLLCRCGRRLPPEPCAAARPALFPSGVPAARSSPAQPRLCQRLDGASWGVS
Assay type: cell-based

First: Nc1nc(CC(=O)Nc2ccc(CC3CC[C@H]([C@H](O)c4cccnc4)N3)cc2)cs1 (stereo partly shown) [Example 3]
Second: Cc1nc(CC(=O)Nc2ccc(CC3CC[C@H]([C@H](O)c4cccnc4)N3)cc2)cs1 (stereo partly shown) [Example 15]
The EC50 of the first is lower: 1 to 10 nM for the first, 11 to 100 nM for the second. The first is the more potent here.

Compared with `O=C(Cc1n[nH]c(-c2ccccc2)n1)Nc1ccc(CC2CC[C@H]([C@H](O)c3cccnc3)N2)cc1` (stereo partly shown) [Example 4], `O=C(Cc1nc2ccccc2[nH]1)Nc1ccc(CC2CC[C@H]([C@H](O)c3cccnc3)N2)cc1` (stereo partly shown) [Example 17] is higher in EC50: 1 to 10 nM for the first, 11 to 100 nM for the second. The first is the more potent here.

First: O=C(Cn1ncc2ccccc21)Nc1ccc(CC2CC[C@H]([C@H](O)c3cccnc3)N2)cc1 (stereo partly shown) [Example 5]
Second: O=C(Cn1c(=O)ncc2ccccc21)Nc1ccc(CC2CC[C@H]([C@H](O)c3cccnc3)N2)cc1 (stereo partly shown) [Example 13]
The EC50 of the first is higher: 11 to 100 nM for the first, 1 to 10 nM for the second. The second is the more potent here.

`O=C(Cn1cc2ccccc2n1)Nc1ccc(CC2CC[C@H]([C@H](O)c3cccnc3)N2)cc1` (stereo partly shown) [Example 6] and `O=C(Cn1nc2ccccc2n1)Nc1ccc(CC2CC[C@H]([C@H](O)c3cccnc3)N2)cc1` (stereo partly shown) [Example 7] fall in the same range of EC50: 11 to 100 nM for the first, 11 to 100 nM for the second.

`O=C(Cn1nc(Cc2ccccc2)c2ccccc2c1=O)Nc1ccc(CC2CC[C@H]([C@H](O)c3cccnc3)N2)cc1` (stereo partly shown) [Example 8] and `Cc1nn(CC(=O)Nc2ccc(CC3CC[C@H]([C@H](O)c4cccnc4)N3)cc2)c(=O)c2ccccc12` (stereo partly shown) [Example 9] fall in the same range of EC50: 1 to 10 nM for the first, 1 to 10 nM for the second.

Compared with `Cc1nc(CC(=O)Nc2ccc(CC3CC[C@H]([C@H](O)c4cccnc4)N3)cc2)c(C)s1` (stereo partly shown) [Example 10], `Cc1nnc(CC(=O)Nc2ccc(CC3CC[C@H]([C@H](O)c4cccnc4)N3)cc2)[nH]1` (stereo partly shown) [Example 23] is higher in EC50: 11 to 100 nM for the first, 101 to 1000 nM for the second. The first is the more potent here.

First: Cc1nc2ccccc2c(=O)n1CC(=O)Nc1ccc(CC2CC[C@H]([C@H](O)c3cccnc3)N2)cc1 (stereo partly shown) [Example 11]
Second: O=C(Cn1c(-c2ccccc2)nc2ccccc21)Nc1ccc(CC2CC[C@H]([C@H](O)c3cccnc3)N2)cc1 (stereo partly shown) [Example 18]
The EC50 of the first is lower: 1 to 10 nM for the first, 11 to 100 nM for the second. The first is the more potent here.

First: O=C(Cc1ccccn1)Nc1ccc(CC2CC[C@H]([C@H](O)c3cccnc3)N2)cc1 (stereo partly shown) [Example 14]
Second: Cc1cccc(CC(=O)Nc2ccc(CC3CC[C@H]([C@H](O)c4cccnc4)N3)cc2)n1 (stereo partly shown) [Example 28]
The EC50 of the first is lower: 11 to 100 nM for the first, 101 to 1000 nM for the second. The first is the more potent here.

Compared with `O=C(Cc1c(-c2ccccc2)[nH]c2ccccc12)Nc1ccc(CC2CC[C@H]([C@H](O)c3cccnc3)N2)cc1` (stereo partly shown) [Example 16], `O=C(Cc1c[nH]c2ccccc12)Nc1ccc(CC2CC[C@H]([C@H](O)c3cccnc3)N2)cc1` (stereo partly shown) [Example 19] is lower in EC50: 11 to 100 nM for the first, 1 to 10 nM for the second. The second is the more potent here.

First: Nc1ncn(CC(=O)Nc2ccc(CC3CC[C@H]([C@H](O)c4cccnc4)N3)cc2)n1 (stereo partly shown) [Example 20]
Second: O=C(Cc1ncccn1)Nc1ccc(CC2CC[C@H]([C@H](O)c3cccnc3)N2)cc1 (stereo partly shown) [Example 22]
The EC50 of the first is lower: 1 to 10 nM for the first, 11 to 100 nM for the second.

First: Cc1sc2ncn(CC(=O)Nc3ccc(CC4CC[C@H]([C@H](O)c5cccnc5)N4)cc3)c(=O)c2c1C (stereo partly shown) [Example 21]
Second: O=C(Cc1csc(C(F)(F)F)n1)Nc1ccc(CC2CC[C@H]([C@H](O)c3cccnc3)N2)cc1 (stereo partly shown) [Example 29]
The EC50 of the first is lower: 1 to 10 nM for the first, 11 to 100 nM for the second.

`O=C(Cc1nnc(-c2ccc(Cl)cc2)[nH]1)Nc1ccc(CC2CC[C@H]([C@H](O)c3cccnc3)N2)cc1` (stereo partly shown) [Example 24] and `O=C(Cc1nnc(-c2ccncc2)[nH]1)Nc1ccc(CC2CC[C@H]([C@H](O)c3cccnc3)N2)cc1` (stereo partly shown) [Example 25] fall in the same range of EC50: 11 to 100 nM for the first, 11 to 100 nM for the second.

First: O=C(Cc1nnc(Cc2ccccc2)[nH]1)Nc1ccc(CC2CC[C@H]([C@H](O)c3cccnc3)N2)cc1 (stereo partly shown) [Example 26]
Second: O=C(Cc1nnc(-c2cscn2)[nH]1)Nc1ccc(CC2CC[C@H]([C@H](O)c3cccnc3)N2)cc1 (stereo partly shown) [Example 27]
The EC50 of the first is higher: 11 to 100 nM for the first, 1 to 10 nM for the second. The second is the more potent here.

`O=C(Nc1ccc(CC2CC[C@H]([C@H](O)c3cccnc3)N2)cc1)[C@@H]1CCCN1c1nccs1` (stereo partly shown) [Example 30] showed an EC50 of 1 to 10 nM.

Same assay, conditions: cAMP production, CHO cells expressing human β3 AR; read-out: human Beta-3 agonist functional activity

With `O=C(CN1CCCC1=O)Nc1ccc(C[C@@H]2CC[C@H]([C@H](O)c3cccnc3)N2)cc1` [Example 2, N-[4-({(2S,5R)-5-[(R)-Hydroxy(pyridin-3-yl)methyl]pyrrolidin-2-yl}methyl)phenyl]-2-(2-oxopyrrolidin-1-yl)acetamide, trfluoroacetic acid salt] the EC50 was under 100 nM.
